Source: paper PMC6478789, “A chemical toolbox for the study of bromodomains and epigenetic signaling” (Nature Communications, 2019)
Read-outs that look alike come from different tables or passages of the source.

Key:
[1] = target: T1, CBP (Homo sapiens, UniProt Q92793); conditions: ITC data, cited from earlier work
T1 construct: Recombinant protein domains (bromodomain or kinases) at a concentration of 2 μM

[2] = target: T2, PIM1 (Homo sapiens, UniProt P11309); experiment: Temperature shift assay (protein kinases); type: binding; conditions: 10 μM probe; average of three measurements
T2 construct: Recombinant protein domains (bromodomain or kinases) at a concentration of 2 μM
T2 sequence (P11309 38-290 limits assumed, species assumed): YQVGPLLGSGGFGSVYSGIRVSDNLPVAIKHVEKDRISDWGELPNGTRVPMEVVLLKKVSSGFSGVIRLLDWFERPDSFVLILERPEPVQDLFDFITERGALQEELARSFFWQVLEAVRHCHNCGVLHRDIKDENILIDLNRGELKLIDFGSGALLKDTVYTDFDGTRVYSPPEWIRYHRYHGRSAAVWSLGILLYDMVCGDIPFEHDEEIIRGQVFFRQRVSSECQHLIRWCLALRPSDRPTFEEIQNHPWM
Description: (§1) Temperature shift assays have been described by Fedorov et al.[46]. Recombinant protein domains (bromodomain or kinases) at a concentration of 2 μM in 10 mM HEPES, pH 7.5, and 500 mM NaCl were mixed with 10 μM of chemical probes. Temperature-dependent protein unfolding profiles were measured using a Real-Time PCR Mx3005p machine (Stratagene).

[3] = target: T3, ABL1 (Homo sapiens, UniProt P00519); experiment: Temperature shift assay (protein kinases); type: binding; conditions: 10 μM probe; average of three measurements
T3 construct: Recombinant protein domains (bromodomain or kinases) at a concentration of 2 μM
T3 sequence (P00519 242-493 limits assumed): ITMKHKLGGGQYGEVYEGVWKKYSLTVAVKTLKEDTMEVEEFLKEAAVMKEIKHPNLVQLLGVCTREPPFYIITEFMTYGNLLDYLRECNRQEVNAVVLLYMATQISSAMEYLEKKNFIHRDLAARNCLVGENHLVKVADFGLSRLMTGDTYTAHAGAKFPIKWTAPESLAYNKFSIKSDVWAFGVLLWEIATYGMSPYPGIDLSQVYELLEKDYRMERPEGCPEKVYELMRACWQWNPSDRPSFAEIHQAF
Description: as §1

[4] = target: T4, CASK (Homo sapiens, UniProt O14936); experiment: Temperature shift assay (protein kinases); type: binding; conditions: 10 μM probe; average of three measurements
T4 construct: Recombinant protein domains (bromodomain or kinases) at a concentration of 2 μM
T4 sequence (O14936 12-276 limits assumed): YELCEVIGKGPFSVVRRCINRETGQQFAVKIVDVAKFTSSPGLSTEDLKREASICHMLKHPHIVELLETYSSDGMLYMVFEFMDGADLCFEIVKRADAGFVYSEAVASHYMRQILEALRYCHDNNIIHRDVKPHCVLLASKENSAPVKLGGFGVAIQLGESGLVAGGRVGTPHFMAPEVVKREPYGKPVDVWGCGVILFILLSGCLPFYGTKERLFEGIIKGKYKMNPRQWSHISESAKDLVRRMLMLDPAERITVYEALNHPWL
Description: as §1

[5] = target: T5, EPHA2 (Homo sapiens, UniProt P29317); experiment: Temperature shift assay (protein kinases); type: binding; conditions: 10 μM probe; average of three measurements
T5 construct: Recombinant protein domains (bromodomain or kinases) at a concentration of 2 μM
T5 sequence (P29317 613-875 limits assumed): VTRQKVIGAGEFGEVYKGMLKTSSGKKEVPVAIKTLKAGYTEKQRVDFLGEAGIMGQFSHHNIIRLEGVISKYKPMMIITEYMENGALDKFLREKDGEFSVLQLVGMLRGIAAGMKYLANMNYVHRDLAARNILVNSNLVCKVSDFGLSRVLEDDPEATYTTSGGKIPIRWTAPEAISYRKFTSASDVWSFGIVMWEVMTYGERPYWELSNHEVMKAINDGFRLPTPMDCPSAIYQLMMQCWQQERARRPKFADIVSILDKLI
Description: as §1

[6] = target: BRPF2; conditions: ITC data, cited from earlier work
[7] = test system: three TNBC lines; experiment: Combinatorial screen of BRD inhibitors with or without BAY-876 (confluency); type: cell-based, human
Description: Fig. 6 BRD inhibitors leverage metabolic adaptations induced by glucose transporter I (GLUT1) inhibition in TNBC. a BRD inhibitor screening across ten TNBC cell lines. Cells were treated with indicated BRD inhibitors at 3 μM for 7 days. Confluency was measured using an IncuCyte ZOOM live cell imaging device. Data shown are mean ± s.d. of n = 4 independent cell culture grown and treated cells. A two-sided Student’s t test was used to derive the p-values. b SLC2A1 gene expression in the The Cancer Genome Atlas (TCGA) breast datasets. The cohorts were divided into TNBCs (red) and non-TNBCs (blue) according to PAM50 classification. Gene expression is reported as median-centered expression log2 values. The number of patients (n) per group is indicated. P-values were determined using a Wilcoxon's rank-sum test. c Glucose uptake in MDA-MB-436 cells in response to BAY-876 treatment relative to vehicle. MDA-MB-436 cells were treated with dimethyl sulfoxide (DMSO) or 3 µM BAY-876 for 5 days. Graph indicates mean, error bars denote s.d. from three independent assays and p-value was computed using the Benjamini-Hochberg t test; ***p < 0.001. d Effects of BAY-876 treatment on the intracellular acetyl-CoA level. Graph indicates mean, error bars denote s.d. from three independent assays and p-value was computed using the Benjamini-Hochberg t test; ***p < 0.001. e Effects of BAY-876 treatment on intracellular NAD^+/NADH level. Graph indicates the mean, error bars denote s.d. from three independent assays and p-value computed using the Benjamini-Hochberg t test; **p < 0.01. f Immunoblot analysis of H3 and H4 acetylation in MDA-MB-436 cells before and after BAY-876 treatment. P-value computed using the Benjamini-Hochberg t test; ***p < 0.001. g Cell growth effects of BAY-876 treatment on three representative cell lines. n.s. not significant. h Combinatorial screening of BRD inhibitors with or without 3 μM BAY-876 across ten TNBC cell lines. Cell confluency was obtained from the endpoint Incucyte scanning. (Left) Heatmap of the combinatorial screening results; (Right) Cell confluency after treatment with three potential BRDi candidates at 3 μM in the presence or absence of 3 μM BAY-876 in three representative cell lines. Graph indicates mean, error bars denote s.d. from three independent assays and p-values were computed using the Benjamini-Hochberg t test; **p < 0.01; ***p < 0.001. Raw data images are available in Supplementary Fig. 4
TNBC cell lines were seeded in sterile, transparent 384-well plates at 500 cells per well in 50 µl media. Chemical probes were delivered in dimethyl sulfoxide (DMSO). Cell confluency at 7 days was evaluated using an Incucyte ZOOM live cell imaging device (Essen Bioscence) and analyzed with the Incucyte ZOOM (2016A) software based on phase contrast image.

T1 sequence (Q92793 1085-1192 limits assumed): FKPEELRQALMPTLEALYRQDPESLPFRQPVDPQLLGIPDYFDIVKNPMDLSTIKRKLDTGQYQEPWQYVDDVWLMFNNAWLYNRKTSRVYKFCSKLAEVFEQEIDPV

Temperature shift [2]	Temperature shift [3]	Temperature shift [4]	Temperature shift [5]	SMILES	also measured
-0.2 Kelvin	0.0 Kelvin	-0.1 Kelvin	2.0 Kelvin	Cc1cc2c(cc1N1C(=O)c3cccc4c(CCCO)ccc(c34)C1=O)n(C)c(=O)n2C [BAY-299]	Kd ([1]; ref 13 (suppl.), read-out: KD (nM), off target CBP): 1390 nM; Kd ([6]; ref 13 (suppl.)): 44 nM
				Cc1c(NC(=O)c2cc(C(N)=O)nc3cc(F)ccc23)c(C(F)(F)F)nn1Cc1ccc(C#N)cc1 [BAY-876]	cell growth, treatment alone ([7]; 3 μM alone): no effect
-0.1 Kelvin	0.0 Kelvin	0.0 Kelvin	1.1 Kelvin	CCC(=O)N1CCOc2c(cc(-c3ccc(OC)c(OC)c3)cc2OCC2CCCN(C)C2)C1 (stereo not shown) [I-CBP112]	Kd ([1]; ref 9 (suppl.), read-out: KD (nM), CBP): 151 nM
2.3 Kelvin	0.0 Kelvin	-0.1 Kelvin	1.1 Kelvin	Cc1nnc2c3ccccc3c(N[C@@H](C)[C@H](c3ccccc3)N(C)C)nn12 [L-Moses]	
				COc1cc2c(cc1NS(=O)(=O)c1ccc(Br)cc1C)n(C)c(=O)n2C [OF-1]	combination effect with BAY-876 across the three cell lines ([7]; 3 μM probe + 3 μM BAY-876): strong synergistic effect across all three cell lines; viability in combination with BAY-876 ([7]; 3 μM probe + 3 μM BAY-876): significant decrease in viability; Kd ([6]; ref 11 (suppl.)): 505 nM
